pIC50, pKd: −log10 of the molar value. Converted amounts (≈) assume the structure as drawn.
How the values were obtained:
FAP = FAP (Homo sapiens (Human), UniProt Q12884); assay: hFAP inhibition assay; format: biochemical; details: hFAP […], Ala-Pro-AMC 20 μM; n = 1 or geometric mean n = 2-3
Summary of the method: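 Human FAP (0.48 nM) in 100 mM Tris HCl, 100 mM NaCl, 0.05% Chaps, pH 7.4 was preincubated 15 min at rt in the dark with compounds (10-point, 3-fold series from 50 μM). Substrate was added from a 40 μM solution, then 30 min at rt. Fluorescence read at ex 340/em 460 nm; IC50 from one-site dose-response fit of % inhibition.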

[1] = target: human Fibroblast activation protein alpha (hFAP) (Homo sapiens (Human), UniProt Q12884); assay: hFAP inhibition assay (tight binders); format: biochemical; details: Ala-Pro-AMC 20 μM, n = 1 or geometric mean n = 2-6; further: hFAP 2.4 pM
Method: The plates were read on a PHERAstar® reader with excitation 340 nm and emission 460 nm. Data were analyzed in Genedata Screener®. IC50 values were determined by plotting % inhibition versus log compound concentration and using a one site dose response model.

hFAP (M39-A757) = hFAP (M39-A757) (Homo sapiens (Human), UniProt Q12884); assay: hFAP binding assay (surface plasmon resonance); details: SPR, 20° C.; for hFAP Binding assay k(off) / hFAP Binding assay k(on): single cycle kinetics; for pKd: n = 1 or geometric mean n = 2-4
[2] = target: Prolyl endopeptidase, Prolyl Oligopeptidase (hPREP) (Homo sapiens (Human), UniProt P48147); assay: hPrep inhibition assay; format: biochemical; details: hPREP 0.6 nM, Z-Gly-Pro-amino-methylcoumarin 50 μM; read-out: PREP IC50
Summary of the method: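 Recombinant human PREP at 0.6 nM final with Z-Gly-Pro-AMC substrate at 50 μM final in Tris-HCl pH 7.5, NaCl, Triton X-100, glutathione; 15 min rt preincubation then 20 min rt reaction in dark. AMC fluorescence (ex 340/em 460 nm); IC50 from one-site dose-response fit of % inhibition.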

Kinetic solubility = details: kinetic from dmso stock
Method: Kinetic solubility was measured as described in Comput Aided Mol Des 2015, 29, 795.

[3] = Metabolic stability in rat hepatocytes (rHep); details: n = 1 or geometric mean of n = 2-3
[4] = Metabolic stability in human liver microsomes (HLM); details: human
Method: Metabolic stability in HLM was measured as described in J Comput Aided Mol Des 2015, 29, 795.

[5] = Solubility, kinetic solubility, n = 1 or average of n = 2-3
[6] = HLM CLint, n = 1 or average of n = 2-3

Chain of hFAP (M39-A757) (Q12884 39-757): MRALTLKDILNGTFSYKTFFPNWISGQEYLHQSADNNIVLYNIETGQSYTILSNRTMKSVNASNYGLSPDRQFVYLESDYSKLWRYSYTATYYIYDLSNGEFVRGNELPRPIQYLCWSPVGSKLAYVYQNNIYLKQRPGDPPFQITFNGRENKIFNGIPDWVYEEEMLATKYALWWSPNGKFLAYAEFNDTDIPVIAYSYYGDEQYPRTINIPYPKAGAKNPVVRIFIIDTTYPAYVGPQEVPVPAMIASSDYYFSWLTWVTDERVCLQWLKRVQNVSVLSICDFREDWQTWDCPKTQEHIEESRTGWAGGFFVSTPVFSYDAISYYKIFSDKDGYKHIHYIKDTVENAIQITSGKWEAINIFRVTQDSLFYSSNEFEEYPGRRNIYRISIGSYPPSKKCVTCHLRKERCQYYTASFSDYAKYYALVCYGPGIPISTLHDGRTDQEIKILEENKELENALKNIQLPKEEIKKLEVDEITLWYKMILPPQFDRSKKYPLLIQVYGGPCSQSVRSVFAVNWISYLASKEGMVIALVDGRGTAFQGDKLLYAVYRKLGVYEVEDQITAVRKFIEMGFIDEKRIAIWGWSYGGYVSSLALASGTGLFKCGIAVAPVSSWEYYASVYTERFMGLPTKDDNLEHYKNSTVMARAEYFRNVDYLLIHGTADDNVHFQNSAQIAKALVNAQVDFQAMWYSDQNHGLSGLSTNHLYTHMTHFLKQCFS
Chain of Prolyl endopeptidase, Prolyl Oligopeptidase (hPREP) (P48147 whole entry): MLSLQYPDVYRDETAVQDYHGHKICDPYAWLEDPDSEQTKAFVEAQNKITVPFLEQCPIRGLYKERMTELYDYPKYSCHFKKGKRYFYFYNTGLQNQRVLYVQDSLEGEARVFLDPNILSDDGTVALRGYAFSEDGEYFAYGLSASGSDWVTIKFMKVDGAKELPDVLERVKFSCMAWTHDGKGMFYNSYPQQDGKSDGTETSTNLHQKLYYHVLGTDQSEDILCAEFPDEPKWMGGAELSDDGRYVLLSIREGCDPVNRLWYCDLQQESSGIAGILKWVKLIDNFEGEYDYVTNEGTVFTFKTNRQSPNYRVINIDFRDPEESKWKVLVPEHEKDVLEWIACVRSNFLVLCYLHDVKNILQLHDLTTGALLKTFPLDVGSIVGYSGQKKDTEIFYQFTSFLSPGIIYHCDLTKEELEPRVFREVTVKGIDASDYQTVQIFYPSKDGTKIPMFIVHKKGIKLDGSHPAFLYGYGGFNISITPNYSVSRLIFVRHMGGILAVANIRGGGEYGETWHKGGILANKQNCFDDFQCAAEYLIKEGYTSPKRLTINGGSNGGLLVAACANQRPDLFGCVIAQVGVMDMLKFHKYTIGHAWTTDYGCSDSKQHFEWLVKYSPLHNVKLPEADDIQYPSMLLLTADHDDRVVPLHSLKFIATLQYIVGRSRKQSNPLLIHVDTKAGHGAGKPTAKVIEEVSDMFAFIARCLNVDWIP
Chain of human Fibroblast activation protein alpha (hFAP) (Q12884 38-760): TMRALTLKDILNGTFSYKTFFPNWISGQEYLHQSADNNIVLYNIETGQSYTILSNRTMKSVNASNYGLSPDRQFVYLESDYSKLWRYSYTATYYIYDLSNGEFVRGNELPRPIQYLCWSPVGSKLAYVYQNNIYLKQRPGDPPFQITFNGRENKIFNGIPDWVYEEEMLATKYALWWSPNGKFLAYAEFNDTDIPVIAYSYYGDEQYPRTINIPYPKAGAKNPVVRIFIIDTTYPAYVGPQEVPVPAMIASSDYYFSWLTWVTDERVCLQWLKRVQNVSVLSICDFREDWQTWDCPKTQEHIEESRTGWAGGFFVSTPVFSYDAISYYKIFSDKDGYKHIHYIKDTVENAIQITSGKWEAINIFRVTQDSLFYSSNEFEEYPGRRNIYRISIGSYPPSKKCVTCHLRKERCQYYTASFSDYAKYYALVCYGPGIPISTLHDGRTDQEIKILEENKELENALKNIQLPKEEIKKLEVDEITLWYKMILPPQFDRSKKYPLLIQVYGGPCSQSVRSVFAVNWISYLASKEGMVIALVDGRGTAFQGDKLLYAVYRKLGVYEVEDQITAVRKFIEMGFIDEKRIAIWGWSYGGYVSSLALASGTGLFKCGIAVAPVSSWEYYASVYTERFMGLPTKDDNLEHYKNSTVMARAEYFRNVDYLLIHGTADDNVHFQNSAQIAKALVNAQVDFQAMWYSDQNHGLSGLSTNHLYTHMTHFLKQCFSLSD
Chain of FAP (Q12884 38-760): as above

Row | SMILES | pIC50 (FAP) | pIC50 [1] | hFAP Binding assay k(off) (hFAP (M39-A757)) | hFAP Binding assay k(on) (hFAP (M39-A757)) | pKd (hFAP (M39-A757)) | pIC50 [2] | solubility (Kinetic solubility; [5]) | rHep CLint [3] | microsomal CLint [4, 6] | solubility (Kinetic solubility) | microsomal CLint [4]
1 | C[C@H]1COCCCN1c1ccc2nccc(C(=O)NCC(=O)N3CSC[C@H]3C#N)c2c1 [Example 63, N-(2-((R)-4-Cyanothiazolidin-3-yl)-2-oxoethyl)-6-((S)-3-methyl-1,4-oxazepan-4-yl)quinoline-4-carboxamide] | 9.48 | 9.72 | 0.000059 s⁻¹ | 4100000 M⁻¹ s⁻¹ | 10.52 | 6.40 | 690 µM (≈ 303 µg/mL) | 30 μL/min/1E6 | 180 µL/min/mg |  | 
2 | C[C@@H]1CN(c2ccc3nccc(C(=O)NCC(=O)N4CSC[C@H]4C#N)c3c2)CCCO1 [Example 64, N-(2-((R)-4-Cyanothiazolidin-3-yl)-2-oxoethyl)-6-((R)-2-methyl-1,4-oxazepan-4-yl)quinoline-4-carboxamide] | 9.55 | 10.07 | 0.00015 s⁻¹ | 1300000 M⁻¹ s⁻¹ | 9.92 | 6.21 | 130 µM (≈ 57.1 µg/mL) | 29 μL/min/1E6 | 56 µL/min/mg |  | 
3 | C[C@H]1CCCN1c1ccc2nccc(C(=O)NCC(=O)N3CSC[C@H]3C#N)c2c1 [Example 65, N-(2-((R)-4-Cyanothiazolidin-3-yl)-2-oxoethyl)-6-((S)-2-methylpyrrolidin-1-yl)quinoline-4-carboxamide] | 9.55 | 9.77 | 0.00047 s⁻¹ | 6700000 M⁻¹ s⁻¹ | 10.26 | 7.00 | 49 µM (≈ 20.1 µg/mL) | 110 μL/min/1E6 | 150 µL/min/mg |  | 
4 | N#C[C@@H]1CSCN1C(=O)CNC(=O)c1ccnc2ccc(N3CCOCC3)c(Cl)c12 [Example 101, (R)-5-Chloro-N-(2-(4-cyanothiazolidin-3-yl)-2-oxoethyl)-6-morpholino-quinoline-4-carboxamide] | 9.42 | 9.46 | 0.000025 s⁻¹ | 740000 M⁻¹ s⁻¹ | 10.47 | 6.42 | > 1000 µM | 2.3 μL/min/1E6 | 8.6 µL/min/mg |  | 
5 | C[C@H]1COC[C@H](C)N1c1ccc2nccc(C(=O)NCC(=O)N3CSC[C@H]3C#N)c2c1 [Example 103, N-(2-((R)-4-Cyanothiazolidin-3-yl)-2-oxoethyl)-6-((3S,5S)-3,5-dimethyl-morpholino)quinoline-4-carboxamide] | 9.51 | 9.96 | 0.00010 s⁻¹ | 3000000 M⁻¹ s⁻¹ | 10.48 | 6.24 | > 1000 µM | 23 μL/min/1E6 | 54 µL/min/mg |  | 
6 | N#C[C@@H]1CSCN1C(=O)CNC(=O)c1ccnc2ccc(N3CCOCC34CCC4)cc12 [Example 104, (R)—N-(2-(4-cyanothiazolidin-3-yl)-2-oxoethyl)-6-(8-oxa-5-azaspiro[3.5]nonan-5-yl)quinoline-4-carboxamide] | 9.68 | 10.09 | 0.000061 s⁻¹ | 3000000 M⁻¹ s⁻¹ | 10.70 | 6.19 |  | 28 μL/min/1E6 |  | 930 µM (≈ 420 µg/mL) | 130 µL/min/mg
7 | C[C@@H]1COC[C@@H](C)N1c1ccc2nccc(C(=O)NCC(=O)N3CSC[C@H]3C#N)c2c1 [Example 105, N-(2-((R)-4-Cyanothiazolidin-3-yl)-2-oxoethyl)-6-((3R,5R)-3,5-dimethyl-morpholino)quinoline-4-carboxamide] | 9.43 | 10.06 | 0.000068 s⁻¹ | 890000 M⁻¹ s⁻¹ | 10.09 | 6.23 | > 1000 µM | 18 μL/min/1E6 | 180 µL/min/mg |  | 
8 | CC[C@H]1COCCN1c1ccc2nccc(C(=O)NCC(=O)N3CSC[C@H]3C#N)c2c1 [Example 106, N-(2-((R)-4-Cyanothiazolidin-3-yl)-2-oxoethyl)-6-((S)-3-ethyl-morpholino)quinoline-4-carboxamide] | 9.64 | 10.10 | 0.00014 s⁻¹ | 1800000 M⁻¹ s⁻¹ | 10.12 | 6.28 | 700 µM (≈ 308 µg/mL) | 21 μL/min/1E6 | 47 µL/min/mg |  | 
9 | N#C[C@@H]1CSCN1C(=O)CNC(=O)c1ccnc2ccc(-c3ccc(F)cn3)cc12 [Example 125, (R)—N-(2-(4-Cyanothiazolidin-3-yl)-2-oxoethyl)-6-(5-fluoropyridin-2-yl)quinoline-4-carboxamide] | 9.68 | 10.34 | 0.00014 s⁻¹ | 3000000 M⁻¹ s⁻¹ | 10.32 | 6.92 | 38 µM (≈ 16 µg/mL) | 7.4 μL/min/1E6 | 14 µL/min/mg |  | 

The next lines start with results.

Row | pIC50 (FAP) | pIC50 [1] | hFAP Binding assay k(off) (hFAP (M39-A757)) | hFAP Binding assay k(on) (hFAP (M39-A757)) | pKd (hFAP (M39-A757)) | pIC50 [2] | solubility (Kinetic solubility; [5]) | rHep CLint [3] | microsomal CLint [4, 6] | SMILES | solubility (Kinetic solubility) | microsomal CLint [4]
10 | 9.49 | 10.09 | 0.00021 s⁻¹ | 1800000 M⁻¹ s⁻¹ | 9.96 | 6.59 | 400 µM (≈ 161 µg/mL) | 10 μL/min/1E6 | 16 µL/min/mg | N#C[C@@H]1CSCN1C(=O)CNC(=O)c1ccnc2ccc(-c3cccnc3)cc12 [Example 126, (R)—N-(2-(4-Cyanothiazolidin-3-yl)-2-oxoethyl)-6-(pyridin-3-yl)quinoline-4-carboxamide] |  | 
11 | 9.42 | 9.80 | 0.0020 s⁻¹ | 6000000 M⁻¹ s⁻¹ | 9.47 | 6.89 | 120 µM (≈ 48.5 µg/mL) | 8.2 μL/min/1E6 | 11 µL/min/mg | N#C[C@@H]1CSCN1C(=O)CNC(=O)c1ccnc2ccc(-c3cncnc3)cc12 [Example 127, (R)—N-(2-(4-Cyanothiazolidin-3-yl)-2-oxoethyl)-6-(pyrimidin-5-yl)-quinoline-4-carboxamide] |  | 
12 | 9.39 | 9.72 | 0.000042 s⁻¹ | 250000 M⁻¹ s⁻¹ | 10.03 | 6.68 | 230 µM (≈ 109 µg/mL) | 26 μL/min/1E6 | 100 µL/min/mg | N#C[C@@H]1CSCN1C(=O)CNC(=O)c1ccnc2ccc(N3CC(F)(c4ccccc4)C3)cc12 [Example 182, (R)—N-(2-(4-Cyanothiazolidin-3-yl)-2-oxoethyl)-6-(3-fluoro-3-phenyl-azetidin-1-yl)quinoline-4-carboxamide] |  | 
13 | 9.48 | 9.72 |  |  | 10.07 | 6.85 | 19 µM (≈ 8.96 µg/mL) | 19 μL/min/1E6 | 49 µL/min/mg | Cc1ccc(C2CN(c3ccc4nccc(C(=O)NCC(=O)N5CSC[C@H]5C#N)c4c3)C2)cc1 [Example 183, (R)—N-(2-(4-Cyanothiazolidin-3-yl)-2-oxoethyl)-6-(3-(p-tolyl)azetidin-1-yl)quinoline-4-carboxamide] |  | 
14 | 9.64 | 9.92 |  |  | 10.37 | 6.89 | 7 µM (≈ 3.33 µg/mL) | 15 μL/min/1E6 | 58 µL/min/mg | N#C[C@@H]1CSCN1C(=O)CNC(=O)c1ccnc2ccc(N3CC(c4ccc(F)cc4)C3)cc12 [Example 185, (R)—N-(2-(4-Cyanothiazolidin-3-yl)-2-oxoethyl)-6-(3-(4-fluorophenyl)-azetidin-1-yl)quinoline-4-carboxamide] |  | 
15 | 9.57 | 10.00 |  |  | 10.35 | 6.82 | 130 µM (≈ 61.3 µg/mL) | 24 μL/min/1E6 | 70 µL/min/mg | Cc1cccc(C2CN(c3ccc4nccc(C(=O)NCC(=O)N5CSC[C@H]5C#N)c4c3)C2)c1 [Example 186, (R)—N-(2-(4-Cyanothiazolidin-3-yl)-2-oxoethyl)-6-(3-(m-tolyl)azetidin-1-yl)quinoline-4-carboxamide] |  | 
16 | 10.01 | 10.14 | 0.00022 s⁻¹ | 3100000 M⁻¹ s⁻¹ | 10.15 | 7.42 | 19 µM (≈ 9.61 µg/mL) | 140 μL/min/1E6 | 190 µL/min/mg | N#C[C@@H]1CSCN1C(=O)CNC(=O)c1ccnc2ccc(N3CC(Cc4ccc(Cl)cc4)C3)cc12 [Example 187, (R)-6-(3-(4-Chlorobenzyl)azetidin-1-yl)-N-(2-(4-cyanothiazolidin-3-yl)-2-oxoethyl)quinoline-4-carboxamide] |  | 

— US20230312550A1, “N-(2-(4-CYANOTHIAZOLIDIN-3-YL)-2-OXOETHYL)-QUINOLINE-4-CARBOXAMIDES” (AstraZeneca AB, priority 2020, published 2023)
